From US20230077362A1 (CORTEVA AGRISCIENCE LLC, priority 2019, published 2023)
Read-outs that look alike come from different tables or passages of the source.

What was measured:
[1] = system: Beet Armyworm (Spodoptera exigua) ("BAW"), second instar larvae; assay: Bioassay on beet armyworm (BAW), 128-well diet tray assay; format: in vivo; conditions: Spodoptera exigua
Experimental: (§1) Certain molecules disclosed in this document were tested against BAW and CL using procedures described in the following examples. In the reporting of the results, the “BAW & CL Rating Table” was used (See Table Section).
(§2) Trays were covered with a clear self-adhesive cover and held at 25° C., 14:10 light-dark cycle for five to seven days. Percent mortality was recorded for the larvae in each well; activity in the eight wells was then averaged. The results are indicated in the table entitled “Table ABC: Biological Results” (See Table Section).

[2] = system: Cabbage Looper (Trichoplusia ni) ("CL"), second instar larvae; assay: Bioassay on cabbage looper (CL), 128-well diet tray assay; format: in vivo; conditions: Trichoplusia ni
Experimental: as §1, §2

[3] = read-out: BAW (Biological Results, rating)

Row | SMILES | pest or weed control at 50 µg/cm2 ([2]; read-out: CL rating) | pest or weed control at 50 µg/cm2 ([1]; read-out: BAW rating) | other results
1 | Cc1ccc(C(F)(F)F)c(N2C(=O)CS/C2=N\C(=O)NC(C)Cc2ccc(-c3ncn(-c4ccc(OC(F)(F)F)cc4)n3)cc2)c1 (centres unmarked) [Compound H4] |  |  | pest or weed control at 50 µg/cm2 [1, 3]: 50 to 100%; pest or weed control at 50 µg/cm2 ([2]; read-out: CL (Biological Results, rating)): 50 to 100%
2 | Cc1ccc(OCC(F)(F)F)c(N2C(=O)CS/C2=N\C(=O)Nc2ccc(-c3ncn(-c4ccc(OC(F)(F)F)cc4)n3)cc2O)c1 [Compound J176, (Z)-1-(2-Hydroxy-4-(1-(4-(trifluoromethoxy)phenyl)-1H-1,2,4-triazol-3-yl)phenyl)-3-(3-(5-methyl-2-(2,2,2-trifluoroethoxy)phenyl)-4-oxothiazolidin-2-ylidene)urea] |  |  | pest or weed control at 50 µg/cm2 [1, 3]: 0 to 50%
3 | COC(C)c1ccc(C)cc1N1C(=O)CS/C1=N\C(=O)Nc1ccc(-c2ncn(-c3ccc(C(F)(F)F)cn3)n2)cc1C(C)=O (centres unmarked) [Compound J416, (Z)-1-(2-Acetyl-4-(1-(5-(trifluoromethyl)pyridin-2-yl)-1H-1,2,4-triazol-3-yl)phenyl)-3-(3-(2-(1-methoxyethyl)-5-methylphenyl)-4-oxothiazolidin-2-ylidene)urea] | 50 to 100% |  | 
4 | CC(=O)c1cc(-c2ncn(-c3ccc(C(F)(F)F)cn3)n2)ccc1NC(=O)/N=C1\SCC(=O)N1c1cc(C)ccc1COCC(F)(F)F [Compound J418, (Z)-1-(2-Acetyl-4-(1-(5-(trifluoromethyl)pyridin-2-yl)-1H-1,2,4-triazol-3-yl)phenyl)-3-(3-(5-methyl-2-((2,2,2-trifluoroethoxy)methyl)phenyl)-4-oxothiazolidin-2-ylidene)urea] |  | 0 to 50% | 
5 | Cc1ccc(OCCC(F)(F)F)c(N2C(=O)CS/C2=N\C(=O)Nc2ccc(-c3cn(-c4ccc(OC(F)(F)F)cc4)nn3)cc2)c1 [Compound J491, (Z)-1-(3-(5-Methyl-2-(3,3,3-trifluoropropoxy)phenyl)-4-oxothiazolidin-2-ylidene)-3-(4-(1-(4-(trifluoromethoxy)phenyl)-1H-1,2,3-triazol-4-yl)phenyl)urea] |  | 50 to 100% | 
6 | CN(C)c1ccc(C(F)(F)F)c(N2C(=O)CS/C2=N\C(=O)Nc2ccc(-c3cn(-c4ccc(OC(F)(F)F)cc4)nn3)cc2)c1 [Compound J495, (Z)-1-(3-(5-(Dimethylamino)-2-(trifluoromethyl)phenyl)-4-oxothiazolidin-2-ylidene)-3-(4-(1-(4-(trifluoromethoxy)phenyl)-1H-1,2,3-triazol-4-yl)phenyl)urea] |  | 0 to 50% | 
7 | Cc1ccc(OCCC(F)(F)F)c(N2C(=O)CS/C2=N\C(=O)Nc2ccc(-c3nnc(-c4ccc(OC(F)(F)F)cc4)s3)cc2F)c1 [Compound J501, (Z)-1-(2-Fluoro-4-(5-(4-(trifluoromethoxy)phenyl)-1,3,4-thiadiazol-2-yl)phenyl)-3-(3-(5-methyl-2-(3,3,3-trifluoropropoxy)phenyl)-4-oxothiazolidin-2-ylidene)urea] |  | 50 to 100% | 
8 | CCOCc1ccc(C)cc1N1C(=O)CS/C1=N\C(=O)Nc1ccc(-c2nnc(-c3ccc(OC(F)(F)F)cc3)s2)cc1F [Compound J503, (Z)-1-(3-(2-(Ethoxymethyl)-5-methylphenyl)-4-oxothiazolidin-2-ylidene)-3-(2-fluoro-4-(5-(4-(trifluoromethoxy)phenyl)-1,3,4-thiadiazol-2-yl)phenyl)urea] | 50 to 100% |  | 
9 | COC(c1ccc(C)cc1N1C(=O)CS/C1=N\C(=O)Nc1ccc(-c2nnc(-c3ccc(OC(F)(F)F)cc3)s2)cc1F)C(F)(F)F (centres unmarked) [Compound J505, (Z)-1-(2-Fluoro-4-(5-(4-(trifluoromethoxy)phenyl)-1,3,4-thiadiazol-2-yl)phenyl)-3-(3-(5-methyl-2-(2,2,2-trifluoro-1-methoxyethyl)phenyl)-4-oxothiazolidin-2-ylidene)urea] | 50 to 100% |  | 
10 | O=C(/N=C1\SCC(=O)N1c1cccc(-c2ccccc2)c1)Nc1ccc(-c2ncn(-c3ccc(OC(F)(F)F)cc3)n2)cc1F [Compound J715, (Z)-1-(3-([1,1′-Biphenyl]-3-yl)-4-oxothiazolidin-2-ylidene)-3-(2-fluoro-4-(1-(4-(trifluoromethoxy)phenyl)-1H-1,2,4-triazol-3-yl)phenyl)urea] |  | 0 to 50% | 
